{"source": "patent US20060188904A1", "about": "“Biosensors having single reactant components immobilized over single electrodes and methods of making and using thereof” (The Regents of the University of California, priority 2003, published 2006)", "key": {"[1]": {"tested_on": "single neuron", "details": "estimated theoretically, literature; cited from earlier work"}, "[2]": {"tested_on": "single neuron", "test": "Single neuron sensor: extracellular electrical response to chemical analytes (FFT/WT analysis, signature pattern vector)", "details": "for Percentage reduction of signal amplitudes from the detection limit to the peak concentration: 5000 ppm to detection limit; for Percentage increase in response time from peak concentration to the sensitivity limits: about 5000 ppm to detection limit; for Response time of a single neuron extracted via WT analysis: at the detection limit; for Detection limit for a single neuron: decrementing concentrations from about 5000 ppm; for Experimentally obtained detection limit (molar): single neuron", "protocol": "The experiments in Example 2 were conducted on mammalian cells, rat osteoblasts and neurons (18 day embryonic Wistar rat) having highly excitable cell membranes. […] A unique response of each cell type to each agent was determined. […] Additionally, the response of each cell type to a mixture of the four agents was determined in order to simulate the real time field conditions.\n(§1) For example, for the experiments described herein, an experimental platform comprising a 5×5 electrode array on a substrate, a silicone chamber, and a measurement system was used. The micrograph of the fabricated electrode array on a substrate is shown in FIG. 1 with a 5×5 platinum electrode array pattern, electrode diameter of 80 μm and with a 200 μm center to center spacing. Two platinum plated leads (6 μm, thick) from each electrode terminated at two separate electrode pads. The dimensions of the electrode pads were 100 μm×120 μm. The electrode array on the substrate was coated with a permeation polyethylamine (PEI) and collagen with a volume of 200 μl (PEI, 1 mg/ml, Collagen 1X, Sigma, St. Louis, Mo.). The electrode array on the substrate with the aqueous coating of the permeation layer was incubated for about 12 hours prior to the experiment at 37 ° C. and 5% CO2.\nThe cells were separated and positioned over the electrodes by setting up a gradient AC field using an extracellular positioning system, comprising of a pulse generator and micromanipulators. The AC signal from the pulse generator was fed to the electrode pads of the selected electrodes using the micromanipulators. The extracellular recordings from the cells were amplified and recorded on an oscilloscope. The supply and measurement systems are integrated using general-purpose interface bus (GPIB) control and controlled through LabVIEW (National Instruments, Austin, Tex.).\nThen fast Fourier transformation (FFT) and wavelet transformation (WT) analysis were used to extract important information from the extracellular action potential (AP) for the neurons. Specific spectrum power vectors (SSPVs) and the relative spectrum power values (RSPVS) were found for osteoblast. Quantitative dose response curves and response times were also obtained for the single cell systems.\nExtracellular signals from individual neurons due to the action of a specific chemical analyte may be analyzed further to understand the chemical type and the cellular response relationship. Here, single neuron based sensor's response and its sensitivity is determined by statistical reconstruction and enhancement of the acquired experimental data. Each chemical was characterized by a unique SPV obtained from the integrated processing of the modified extracellular action potential in the frequency domain (FFT) as well as the time domain (WT).\nIntegrated signal processing yielded an SPV specific to every chemical analyte. The SPV provides unique functional data corresponding to the physiological state of a single neuron due to the action of a particular analyte at a specific concentration. Each SPV comprises of certain frequency states, which are analyte specific and having maximum relative amplitudes that are generated concurrently in the sensing cycle; these correspond to the neuron's modified stable burst rate. Extracellular signal amplitudes greater than about 50 μV are considered to be accurate measures of the cell response due to a specific chemical analyte as the magnitude of signals due to non-specific interactions and noise signals are smaller than this value."}, "[3]": {"tested_on": "rat osteoblasts", "test": "Single osteoblast sensor: response time to chemical analytes", "format": "cell-based", "details": "at the concentration printed under each value (EDTA 280 ppm, ethanol 190 ppm, peroxide 25 ppm, pyrethroids 890 ppm), preliminary results", "protocol": "The experiments in Example 2 were conducted on mammalian cells, rat osteoblasts and neurons (18 day embryonic Wistar rat) having highly excitable cell membranes. […] A unique response of each cell type to each agent was determined. […] Here, two out of four agents are discussed. Additionally, the response of each cell type to a mixture of the four agents was determined in order to simulate the real time field conditions. The results obtained for neurons are discussed.\nas §1\nThe cells were separated and positioned over the electrodes by setting up a gradient AC field using an extracellular positioning system, comprising of a pulse generator and micromanipulators. The AC signal from the pulse generator was fed to the electrode pads of the selected electrodes using the micromanipulators. The extracellular recordings from the cells were amplified and recorded on an oscilloscope. […]\nThen fast Fourier transformation (FFT) and wavelet transformation (WT) analysis were used to extract important information from the extracellular action potential (AP) for the neurons. […] Quantitative dose response curves and response times were also obtained for the single cell systems."}, "[4]": {"tested_on": "single neuron", "details": "hydrogen peroxide added after ethanol, both at their detection limits", "description": "The detection limits for individual chemicals act as the basis for determining the concentration of the specific chemical analytes used in cascaded sensing. Addition of the first chemical analyte approaching its sensitivity limit results in the acquisition of modified extracellular potential pertaining to the specific chemical analyte. The use of the chemical analyte close to its detection limit leads to the dissipation as well as metabolization of the chemical analyte within a single sensing cycle (180 seconds) that result in the reduction of the chemical analyte concentration below the detection threshold. […] Administration of the second chemical analyte results in a specific modification based on the latter.\nThe concentrations of the chemicals used were at their detection limits."}}, "note": "“And” between values parts separate entries of the source, which are not always exact repeats. Equal entries are not always repeated."}
{"compound": "CCO", "note": "[ethanol]", "values": [{"measurement": "Lowest single neuron sensitivity, lowest concentration determined by existing methods", "setting": "[1]", "value": "about 25 μM"}, {"measurement": "Percentage reduction of signal amplitudes from the detection limit to the peak concentration", "setting": "[2]; n=15", "value": "about 52%"}, {"measurement": "Percentage increase in response time from peak concentration to the sensitivity limits", "setting": "[2]; n=15", "value": "about 1.6%"}, {"measurement": "Response time of a single neuron extracted via WT analysis", "setting": "[2]; n=15", "value": "about 0.21 second"}, {"measurement": "Eigen vectors of the SPV / modified firing frequency (Example 2)", "setting": "[2]; control burst rate 626 Hz, unchanged for varying concentrations, n=15", "value": 314, "unit": "Hz"}, {"measurement": "Detection limit for a single neuron", "setting": "[2]; n=15", "value": "about 9 ppm"}, {"measurement": "Frequency of firing of the neuron / eigen values of the SPV (description of FIGS. 4-7)", "setting": "[2]; low and high frequency modes, hydrogen peroxide within 30 seconds of addition", "value": "315 Hz and 627 Hz and 314 Hz and 626 Hz"}, {"measurement": "Percentage reduction of signal amplitude per 1000 ppm", "setting": "[2]; n=15", "value": "about 8.2%±0.12%"}, {"measurement": "Experimentally obtained detection limit (molar)", "setting": "[2]", "value": "about 2.17×10^−12 M"}, {"measurement": "Response time of osteoblast cells", "setting": "[3]", "value": 0.71, "unit": "sec per"}]}
{"compound": "OO", "note": "[hydrogen peroxide]", "values": [{"measurement": "High frequency eigen vector after cascaded addition", "setting": "[4]", "value": 775, "unit": "Hz"}, {"measurement": "Lowest single neuron sensitivity, lowest concentration determined by existing methods", "setting": "[1]", "value": "about 15 nM"}, {"measurement": "Percentage reduction of signal amplitudes from the detection limit to the peak concentration", "setting": "[2]; n=15", "value": "about 38%"}, {"measurement": "Percentage increase in response time from peak concentration to the sensitivity limits", "setting": "[2]; n=15", "value": "about 1.8%"}, {"measurement": "Response time of a single neuron extracted via WT analysis", "setting": "[2]; n=15", "value": "about 0.07 second"}, {"measurement": "Detection limit for a single neuron", "setting": "[2]; n=15", "value": "about 19 ppm"}, {"measurement": "Percentage reduction of signal amplitude per 1000 ppm", "setting": "[2]; n=15", "value": "about 7.8%±0.14%"}, {"measurement": "Experimentally obtained detection limit (molar)", "setting": "[2]", "value": "about 2.94×10^−12 M"}, {"measurement": "Response time of osteoblast cells", "setting": "[3]", "value": 0.42, "unit": "sec per"}]}
{"compound": "O=C(O)CN(CCN(CC(=O)O)CC(=O)O)CC(=O)O", "note": "[EDTA, ethylenediaminetetraacetic acid]", "values": [{"measurement": "Lowest single neuron sensitivity, lowest concentration determined by existing methods", "setting": "[1]", "value": "about 15 pM"}, {"measurement": "Percentage reduction of signal amplitudes from the detection limit to the peak concentration", "setting": "[2]; n=15", "value": "about 67%"}, {"measurement": "Percentage increase in response time from peak concentration to the sensitivity limits", "setting": "[2]; n=15", "value": "about 1.8%"}, {"measurement": "Response time of a single neuron extracted via WT analysis", "setting": "[2]; n=15", "value": "about 0.27 second"}, {"measurement": "Detection limit for a single neuron", "setting": "[2]; n=15", "value": "about 180 ppm"}, {"measurement": "Percentage reduction of signal amplitude per 1000 ppm", "setting": "[2]; n=15", "value": "about 10.4%±0.11%"}, {"measurement": "Experimentally obtained detection limit (molar)", "setting": "[2]", "value": "about 3.42×10^−13 M"}, {"measurement": "Response time of osteoblast cells", "setting": "[3]", "value": 0.14, "unit": "sec per"}]}
